Experimental data published in ChEMBL document CHEMBL1909046, “DrugMatrix in vitro pharmacology data”.

What was measured:
[1] = DRUGMATRIX: Sodium/nucleoside co-transporter radioligand binding (ligand: nitrobenzylthioinosine); format: cell membranes, Cavia porcellus, Dunkin-Hartley, Cerebral cortex, Membrane; conditions: Not Active = under 50% inhibition at 10 µM
Thromboxane-A synthase = target: T1, Thromboxane-A synthase (Homo sapiens, UniProt P24557); assay: biochemical; format: tissue-based, Platelet;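 also: enzyme inhibition assay with PGH2 supplied as substrate; in other assays of this panel Not Active means under 50% inhibition at 10 µM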
T1 sequence (P24557 whole entry): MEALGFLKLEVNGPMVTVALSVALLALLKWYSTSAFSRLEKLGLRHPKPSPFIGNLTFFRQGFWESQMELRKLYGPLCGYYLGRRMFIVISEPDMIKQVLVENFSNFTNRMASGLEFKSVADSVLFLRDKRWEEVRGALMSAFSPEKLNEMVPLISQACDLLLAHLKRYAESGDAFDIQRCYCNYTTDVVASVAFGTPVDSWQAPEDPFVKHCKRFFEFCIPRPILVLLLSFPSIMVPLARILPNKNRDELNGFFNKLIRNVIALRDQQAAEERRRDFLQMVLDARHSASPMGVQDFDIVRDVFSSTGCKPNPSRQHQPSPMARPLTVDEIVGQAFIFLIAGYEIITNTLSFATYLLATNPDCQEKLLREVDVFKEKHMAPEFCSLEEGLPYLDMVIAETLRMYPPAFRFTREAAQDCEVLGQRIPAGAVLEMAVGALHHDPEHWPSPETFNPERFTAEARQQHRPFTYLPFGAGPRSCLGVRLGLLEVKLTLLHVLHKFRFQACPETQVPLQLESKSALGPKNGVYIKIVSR

Leukotriene C4 synthase = target: T2, Leukotriene C4 synthase (Cavia porcellus, UniProt A6XA80); assay: biochemical; format: tissue-based, Lung;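 also: enzyme inhibition assay of leukotriene C4 synthase, using LTA4 as the substrate; in other assays of this panel Not Active means under 50% inhibition at 10 µM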
T2 sequence (A6XA80 whole entry): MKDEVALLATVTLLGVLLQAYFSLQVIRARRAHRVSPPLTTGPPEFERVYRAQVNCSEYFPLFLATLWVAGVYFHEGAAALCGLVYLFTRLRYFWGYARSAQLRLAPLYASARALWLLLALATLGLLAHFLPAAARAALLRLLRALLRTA

[2] = target: T3, Cysteinyl leukotriene receptor 1 (Homo sapiens, UniProt Q9Y271); format: cell membranes, CHO-K1, Membrane; conditions: cho-k1; also: in other assays of this panel Not Active means under 50% inhibition at 10 µM
T3 sequence (Q9Y271 whole entry): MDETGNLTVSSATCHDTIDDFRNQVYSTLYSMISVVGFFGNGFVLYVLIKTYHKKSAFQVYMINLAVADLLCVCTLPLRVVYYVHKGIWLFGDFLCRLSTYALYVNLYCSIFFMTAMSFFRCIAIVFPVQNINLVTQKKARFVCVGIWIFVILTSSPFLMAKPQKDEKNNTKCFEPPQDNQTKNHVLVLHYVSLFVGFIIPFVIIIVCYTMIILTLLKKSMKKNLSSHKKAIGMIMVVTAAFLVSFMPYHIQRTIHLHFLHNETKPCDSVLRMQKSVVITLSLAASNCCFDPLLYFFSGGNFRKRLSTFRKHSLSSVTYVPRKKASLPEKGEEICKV

Melanocortin receptor 5 = Melanocortin receptor 5 (Homo sapiens, UniProt P33032); format: cell membranes, HEK293, Membrane; conditions: hek293; also: in other assays of this panel Not Active means under 50% inhibition at 10 µM
Sequence of Melanocortin receptor 5 (P33032 whole entry): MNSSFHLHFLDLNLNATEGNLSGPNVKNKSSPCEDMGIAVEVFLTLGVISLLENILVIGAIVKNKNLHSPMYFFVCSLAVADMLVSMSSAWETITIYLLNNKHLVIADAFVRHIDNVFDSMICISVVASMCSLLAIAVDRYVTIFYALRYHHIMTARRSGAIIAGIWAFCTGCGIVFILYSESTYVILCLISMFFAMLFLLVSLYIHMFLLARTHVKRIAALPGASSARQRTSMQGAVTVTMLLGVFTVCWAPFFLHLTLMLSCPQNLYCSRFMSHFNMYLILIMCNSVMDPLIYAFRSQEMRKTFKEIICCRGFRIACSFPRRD

Adenosine receptor A1 = target: T4, Adenosine receptor A1 (Homo sapiens, UniProt P30542); format: cell membranes, CHO, Membrane; conditions: cho
T4 sequence (P30542 whole entry): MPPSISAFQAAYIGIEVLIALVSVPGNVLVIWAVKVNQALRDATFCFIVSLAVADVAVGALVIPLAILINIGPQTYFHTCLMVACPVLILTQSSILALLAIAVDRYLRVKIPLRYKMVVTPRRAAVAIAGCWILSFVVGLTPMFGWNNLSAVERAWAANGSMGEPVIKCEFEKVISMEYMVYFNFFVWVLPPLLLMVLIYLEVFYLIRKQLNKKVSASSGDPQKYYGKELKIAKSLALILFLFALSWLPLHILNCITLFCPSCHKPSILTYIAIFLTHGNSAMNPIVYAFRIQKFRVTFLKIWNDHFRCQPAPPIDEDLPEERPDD

Compound | IC50 [1] | Ki [1] | IC50 (Thromboxane-A synthase; platelet) | IC50 (Leukotriene C4 synthase) | IC50 [2] | IC50 (Melanocortin receptor 5) | IC50 (Adenosine receptor A1) | Ki (Thromboxane-A synthase; platelet) | Ki (Leukotriene C4 synthase) | Ki [2] | Ki (Melanocortin receptor 5) | Ki (Adenosine receptor A1) | IC50 (Thromboxane-A synthase; read-out: IC50) [µM]
C=CCN1CC[C@]23c4c5ccc(O)c4O[C@H]2/C(=N/N=C2\CC[C@@]4(O)[C@H]6Cc7ccc(O)c8c7[C@@]4(CCN6CC=C)[C@H]2O8)CC[C@@]3(O)[C@H]1C5 [NALOXONAZINE] | Not Active | Not Active | Not Active | Not Active | Not Active | Not Active | Not Active | – | – | – | – | – | –
CC(C)(C#N)c1cc(Cn2cncn2)cc(C(C)(C)C#N)c1 [ANASTROZOLE] | Not Active | Not Active | Not Active | Not Active | Not Active | Not Active | Not Active | – | – | – | – | – | –
OC[C@H]1O[C@@H]2O[C@H]3[C@H](O)[C@@H](O)[C@@H](O[C@H]4[C@H](O)[C@@H](O)[C@@H](O[C@H]5[C@H](O)[C@@H](O)[C@@H](O[C@H]6[C@H](O)[C@@H](O)[C@@H](O[C@H]7[C@H](O)[C@@H](O)[C@@H](O[C@H]1[C@H](O)[C@H]2O)O[C@@H]7CO)O[C@@H]6CO)O[C@@H]5CO)O[C@@H]4CO)O[C@@H]3CO [ALFADEX] | Not Active | Not Active | Not Active | Not Active | Not Active | Not Active | Not Active | – | – | – | – | – | –
POVIDONE | Not Active | Not Active | Not Active | Not Active | Not Active | Not Active | Not Active | Not Active | Not Active | Not Active | Not Active | Not Active | –
c1ccc2c(c1)Nc1ccccc1S2 [PHENOTHIAZINE] | Not Active | Not Active | Not Active | Not Active | Not Active | Not Active | Not Active | – | – | – | – | – | –
CC[C@H]1OC(=O)[C@H](C)[C@@H](O[C@H]2C[C@@](C)(OC)[C@@H](O)[C@H](C)O2)[C@H](C)[C@@H](O[C@@H]2O[C@H](C)C[C@H](N(C)C)[C@H]2O)[C@](C)(O)C[C@@H](C)C(=O)[C@H](C)[C@@H](O)[C@]1(C)O [ERYTHROMYCIN] | Not Active | Not Active | Not Active | Not Active | Not Active | Not Active | Not Active | – | – | – | – | – | –
NS(=O)(=O)c1cc(C(=O)O)c(NCc2ccco2)cc1Cl [FUROSEMIDE] | Not Active | Not Active | Not Active | Not Active | Not Active | Not Active | Not Active | – | – | – | – | – | –
COc1cc([C@@H]2c3cc4c(cc3[C@H](O)[C@H]3COC(=O)[C@H]23)OCO4)cc(OC)c1OC [PODOFILOX] | Not Active | Not Active | Not Active | Not Active | Not Active | Not Active | Not Active | – | – | – | – | – | –
CC(N)Cc1c[nH]c2ccc(OCc3cccs3)cc12 (stereo not given) [BW-723C86] | Not Active | Not Active | Not Active | Not Active | Not Active | Not Active | Not Active | – | – | – | – | – | –
O=C(O)COC(=O)Cc1ccccc1Nc1c(Cl)cccc1Cl [ACECLOFENAC] | Not Active | Not Active | Not Active | Not Active | Not Active | Not Active | Not Active | – | – | – | – | – | –
COC(=O)Nc1nc2ccc(Sc3ccccc3)cc2[nH]1 [FENBENDAZOLE] | Not Active | Not Active | Not Active | Not Active | Not Active | Not Active | Not Active | – | – | – | – | – | –
Cc1c(N)nc([C@H](CC(N)=O)NC[C@H](N)C(N)=O)nc1C(=O)N[C@H](C(=O)N[C@H](C)[C@@H](O)[C@H](C)C(=O)N[C@H](C(=O)NCCc1nc(-c2nc(C(=O)NCCC[S+](C)C)cs2)cs1)[C@@H](C)O)[C@@H](O[C@@H]1O[C@@H](CO)[C@@H](O)[C@H](O)[C@@H]1O[C@H]1O[C@H](CO)[C@@H](O)[C@H](OC(N)=O)[C@@H]1O)c1c[nH]cn1.[Br-] [BLEOMYCIN A2] | Not Active | Not Active | Not Active | Not Active | Not Active | Not Active | Not Active | – | – | – | – | – | –
C#C[C@]1(O)CC[C@H]2[C@@H]3CCC4=CC(=O)CC[C@@H]4[C@H]3CC[C@@]21C [NORETHINDRONE] | Not Active | Not Active | Not Active | Not Active | Not Active | Not Active | Not Active | – | – | – | – | – | –
CC(CN1c2ccccc2Sc2ccccc21)N(C)C (stereo not given) [PROMETHAZINE] | Not Active | Not Active | Not Active | Not Active | Not Active | Not Active | Not Active | – | – | – | – | – | –
COc1cc(NC(C)CCCN)c2ncccc2c1 (stereo not given) [PRIMAQUINE] | Not Active | Not Active | Not Active | Not Active | Not Active | Not Active | Not Active | – | – | – | – | – | –
CCCCCCNC(=O)n1cc(F)c(=O)[nH]c1=O [CARMOFUR] | Not Active | Not Active | Not Active | Not Active | Not Active | Not Active | Not Active | – | – | – | – | – | –
Cc1cc(C(C)(C)C)c(O)c(C)c1CC1=NCCN1 [OXYMETAZOLINE] | Not Active | Not Active | Not Active | Not Active | Not Active | Not Active | Not Active | – | – | – | – | – | –
O=c1[nH]c2ccccc2c2ccccc12 | Not Active | Not Active | Not Active | Not Active | Not Active | Not Active | Not Active | – | – | – | – | – | –
C=C(Cl)Cl [1,1-DICHLOROETHENE] | Not Active | Not Active | Not Active | Not Active | Not Active | Not Active | Not Active | – | – | – | – | – | –
CC(=O)[C@]1(O)Cc2c(O)c3c(c(O)c2[C@@H](O[C@H]2C[C@H](N)[C@H](O)[C@H](C)O2)C1)C(=O)c1ccccc1C3=O [IDARUBICIN] | Not Active | Not Active | Not Active | Not Active | Not Active | Not Active | Not Active | – | – | – | – | – | –
Oc1ccccc1 [PHENOL] | Not Active | Not Active | Not Active | Not Active | Not Active | Not Active | Not Active | – | – | – | – | – | –
O=C(Nc1ccc(Cl)c(Cl)c1)c1cc(Cl)cc(Cl)c1O [3,3',4',5-TETRACHLOROSALICYLANILIDE] | Not Active | Not Active | – | Not Active | Not Active | Not Active | Not Active | – | – | – | – | – | 4.93
CC(=O)Nc1ccc2c(c1)Cc1ccccc1-2 [2-ACETYLAMINOFLUORENE] | Not Active | Not Active | Not Active | Not Active | Not Active | Not Active | Not Active | – | – | – | – | – | –
C[N+](C)(C)CCOC(N)=O.[Cl-] [CARBACHOL] | Not Active | Not Active | Not Active | Not Active | Not Active | Not Active | Not Active | – | – | – | – | – | –
Oc1ncnc2[nH]ncc12 [ALLOPURINOL] | Not Active | Not Active | Not Active | Not Active | Not Active | Not Active | Not Active | – | – | – | – | – | –
